According to ChEMBL document CHEMBL3991601, “The target landscape of clinical kinase drugs” (Science, 2017):
Calls of active or inactive are those of the source.

Key:
[1] = target: Dual specificity protein kinase CLK3 (Homo sapiens, UniProt P49761); assay type: subcellular, K-562, COLO 205, SK-N-BE(2) and MV-4-11, Cell lysate; details: read-out: Kd apparent
UMP-CMP kinase = target: T1, UMP-CMP kinase (Homo sapiens, UniProt P30085)
T1 sequence (P30085 whole entry): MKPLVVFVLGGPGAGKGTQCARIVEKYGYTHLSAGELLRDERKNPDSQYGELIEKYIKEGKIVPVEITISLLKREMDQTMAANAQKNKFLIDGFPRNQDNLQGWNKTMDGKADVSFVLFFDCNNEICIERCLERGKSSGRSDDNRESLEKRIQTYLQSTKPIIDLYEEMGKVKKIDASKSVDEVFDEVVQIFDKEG

[2] = target: T2, Tyrosine-protein kinase Mer (Homo sapiens, UniProt Q12866)
T2 sequence (Q12866 whole entry): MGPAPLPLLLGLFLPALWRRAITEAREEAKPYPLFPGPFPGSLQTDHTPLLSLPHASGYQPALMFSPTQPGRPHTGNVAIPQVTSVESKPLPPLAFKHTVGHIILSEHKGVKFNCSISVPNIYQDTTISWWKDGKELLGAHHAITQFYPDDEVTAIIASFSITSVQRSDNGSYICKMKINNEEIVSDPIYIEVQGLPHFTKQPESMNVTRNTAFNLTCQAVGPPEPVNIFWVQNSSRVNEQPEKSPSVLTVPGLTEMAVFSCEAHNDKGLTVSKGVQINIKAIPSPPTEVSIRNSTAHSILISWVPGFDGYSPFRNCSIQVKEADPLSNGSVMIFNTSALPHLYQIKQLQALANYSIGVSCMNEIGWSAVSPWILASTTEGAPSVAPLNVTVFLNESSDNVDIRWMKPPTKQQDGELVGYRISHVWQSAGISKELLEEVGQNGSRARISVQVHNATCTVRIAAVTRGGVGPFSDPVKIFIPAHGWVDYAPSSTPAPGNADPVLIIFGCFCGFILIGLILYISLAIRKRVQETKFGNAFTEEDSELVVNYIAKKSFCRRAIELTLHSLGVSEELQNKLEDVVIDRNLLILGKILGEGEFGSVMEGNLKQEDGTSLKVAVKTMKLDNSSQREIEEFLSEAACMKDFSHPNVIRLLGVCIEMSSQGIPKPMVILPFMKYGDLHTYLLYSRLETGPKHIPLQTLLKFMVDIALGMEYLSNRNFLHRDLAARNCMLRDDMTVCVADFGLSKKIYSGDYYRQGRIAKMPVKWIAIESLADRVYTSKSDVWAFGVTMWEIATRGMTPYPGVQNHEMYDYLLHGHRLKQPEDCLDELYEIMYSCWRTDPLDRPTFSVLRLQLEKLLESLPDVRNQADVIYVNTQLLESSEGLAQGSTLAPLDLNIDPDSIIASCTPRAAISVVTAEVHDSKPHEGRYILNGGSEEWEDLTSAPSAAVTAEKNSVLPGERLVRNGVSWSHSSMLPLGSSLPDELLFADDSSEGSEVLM

Misshapen-like kinase 1 = Misshapen-like kinase 1 (Homo sapiens, UniProt Q8N4C8)
[3] = target: Choline-phosphate cytidylyltransferase A (Homo sapiens, UniProt P49585)
[4] = target: Serine/threonine-protein kinase PLK1 (Homo sapiens, UniProt P53350)
[5] = target: T3, Protein kinase C zeta type (Homo sapiens, UniProt Q05513)
T3 sequence (Q05513 whole entry): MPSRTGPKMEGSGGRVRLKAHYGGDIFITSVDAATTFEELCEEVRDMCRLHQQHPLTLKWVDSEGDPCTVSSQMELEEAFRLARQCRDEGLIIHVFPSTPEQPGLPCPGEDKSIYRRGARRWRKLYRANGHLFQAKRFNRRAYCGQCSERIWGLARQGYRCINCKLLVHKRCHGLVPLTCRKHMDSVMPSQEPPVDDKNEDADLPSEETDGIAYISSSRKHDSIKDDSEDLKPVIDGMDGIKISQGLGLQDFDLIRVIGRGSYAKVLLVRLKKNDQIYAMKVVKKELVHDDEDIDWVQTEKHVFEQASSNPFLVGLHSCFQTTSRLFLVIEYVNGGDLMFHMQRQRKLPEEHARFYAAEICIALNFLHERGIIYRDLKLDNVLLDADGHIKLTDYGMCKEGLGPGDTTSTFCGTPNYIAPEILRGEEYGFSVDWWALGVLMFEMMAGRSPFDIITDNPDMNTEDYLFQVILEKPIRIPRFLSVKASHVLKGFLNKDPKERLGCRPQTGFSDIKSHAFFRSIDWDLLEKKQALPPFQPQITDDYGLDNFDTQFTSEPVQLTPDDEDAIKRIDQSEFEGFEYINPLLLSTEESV

[6] = target: Serine/threonine-protein kinase 38-like (Homo sapiens, UniProt Q9Y2H1)

Measured: Kd
Also: in the data inactive means no Kd found up to 30 µM.

Sequence of Dual specificity protein kinase CLK3 (P49761 whole entry): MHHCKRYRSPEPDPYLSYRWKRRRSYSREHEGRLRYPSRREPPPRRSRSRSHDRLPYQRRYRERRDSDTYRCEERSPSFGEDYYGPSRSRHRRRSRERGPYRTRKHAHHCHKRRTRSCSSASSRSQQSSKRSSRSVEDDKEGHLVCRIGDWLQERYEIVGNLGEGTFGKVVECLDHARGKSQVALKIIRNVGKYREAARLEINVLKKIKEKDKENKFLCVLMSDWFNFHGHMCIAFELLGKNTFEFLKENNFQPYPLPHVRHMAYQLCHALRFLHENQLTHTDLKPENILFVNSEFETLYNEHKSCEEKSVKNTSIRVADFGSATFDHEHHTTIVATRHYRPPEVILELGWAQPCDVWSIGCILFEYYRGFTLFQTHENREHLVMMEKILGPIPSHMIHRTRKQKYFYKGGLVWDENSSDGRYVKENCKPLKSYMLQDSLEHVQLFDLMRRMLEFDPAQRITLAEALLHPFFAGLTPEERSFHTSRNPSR
Sequence of Misshapen-like kinase 1 (Q8N4C8 whole entry): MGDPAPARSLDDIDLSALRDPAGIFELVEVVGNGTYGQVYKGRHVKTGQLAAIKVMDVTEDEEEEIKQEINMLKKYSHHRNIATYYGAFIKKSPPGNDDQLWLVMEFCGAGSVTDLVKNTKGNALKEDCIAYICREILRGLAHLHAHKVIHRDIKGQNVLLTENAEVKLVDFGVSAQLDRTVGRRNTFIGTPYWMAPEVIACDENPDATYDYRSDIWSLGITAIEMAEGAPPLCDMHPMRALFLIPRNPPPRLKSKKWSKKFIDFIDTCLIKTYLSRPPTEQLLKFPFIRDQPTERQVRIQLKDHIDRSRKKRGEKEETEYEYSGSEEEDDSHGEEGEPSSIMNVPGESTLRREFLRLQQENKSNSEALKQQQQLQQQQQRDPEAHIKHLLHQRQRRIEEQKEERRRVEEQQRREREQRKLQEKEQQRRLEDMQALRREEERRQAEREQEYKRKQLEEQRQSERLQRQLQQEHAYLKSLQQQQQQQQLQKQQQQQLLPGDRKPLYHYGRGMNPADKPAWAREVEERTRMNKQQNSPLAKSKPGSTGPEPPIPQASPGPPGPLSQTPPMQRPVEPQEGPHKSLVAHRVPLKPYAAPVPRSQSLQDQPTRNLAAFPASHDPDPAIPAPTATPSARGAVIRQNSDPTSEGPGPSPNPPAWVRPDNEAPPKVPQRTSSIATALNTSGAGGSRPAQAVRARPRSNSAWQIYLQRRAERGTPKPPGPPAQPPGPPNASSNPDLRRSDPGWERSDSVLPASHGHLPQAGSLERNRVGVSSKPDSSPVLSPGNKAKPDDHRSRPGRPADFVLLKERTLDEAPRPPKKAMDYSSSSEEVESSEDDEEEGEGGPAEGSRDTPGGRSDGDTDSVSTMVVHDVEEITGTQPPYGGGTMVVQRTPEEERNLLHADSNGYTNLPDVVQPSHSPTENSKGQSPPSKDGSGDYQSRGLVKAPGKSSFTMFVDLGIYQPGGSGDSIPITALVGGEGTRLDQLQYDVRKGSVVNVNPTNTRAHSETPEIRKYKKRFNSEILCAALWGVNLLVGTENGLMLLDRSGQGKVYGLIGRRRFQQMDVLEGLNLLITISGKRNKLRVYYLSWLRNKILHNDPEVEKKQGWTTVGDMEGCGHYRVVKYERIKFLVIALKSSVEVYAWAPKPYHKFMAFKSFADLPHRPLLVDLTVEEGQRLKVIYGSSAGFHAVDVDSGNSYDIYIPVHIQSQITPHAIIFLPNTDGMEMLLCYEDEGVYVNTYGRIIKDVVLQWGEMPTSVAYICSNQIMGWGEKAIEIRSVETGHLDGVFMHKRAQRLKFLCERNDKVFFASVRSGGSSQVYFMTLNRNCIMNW
Sequence of Serine/threonine-protein kinase PLK1 (P53350 whole entry): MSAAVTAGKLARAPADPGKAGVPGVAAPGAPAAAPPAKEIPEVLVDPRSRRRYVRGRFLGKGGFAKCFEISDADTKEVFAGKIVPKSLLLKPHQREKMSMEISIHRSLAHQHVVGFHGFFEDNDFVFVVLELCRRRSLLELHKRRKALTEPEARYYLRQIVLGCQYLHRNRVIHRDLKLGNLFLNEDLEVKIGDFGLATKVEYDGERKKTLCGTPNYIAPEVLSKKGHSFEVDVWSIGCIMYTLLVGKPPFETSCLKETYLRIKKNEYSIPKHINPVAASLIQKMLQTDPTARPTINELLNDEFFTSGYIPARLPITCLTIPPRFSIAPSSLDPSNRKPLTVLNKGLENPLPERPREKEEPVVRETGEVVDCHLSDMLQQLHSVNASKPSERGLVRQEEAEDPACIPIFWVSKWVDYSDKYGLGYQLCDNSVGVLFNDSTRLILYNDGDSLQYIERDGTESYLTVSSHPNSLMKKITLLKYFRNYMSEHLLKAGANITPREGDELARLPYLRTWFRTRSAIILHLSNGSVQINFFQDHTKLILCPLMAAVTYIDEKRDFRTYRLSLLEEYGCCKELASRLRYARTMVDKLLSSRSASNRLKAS
Sequence of Choline-phosphate cytidylyltransferase A (P49585 whole entry): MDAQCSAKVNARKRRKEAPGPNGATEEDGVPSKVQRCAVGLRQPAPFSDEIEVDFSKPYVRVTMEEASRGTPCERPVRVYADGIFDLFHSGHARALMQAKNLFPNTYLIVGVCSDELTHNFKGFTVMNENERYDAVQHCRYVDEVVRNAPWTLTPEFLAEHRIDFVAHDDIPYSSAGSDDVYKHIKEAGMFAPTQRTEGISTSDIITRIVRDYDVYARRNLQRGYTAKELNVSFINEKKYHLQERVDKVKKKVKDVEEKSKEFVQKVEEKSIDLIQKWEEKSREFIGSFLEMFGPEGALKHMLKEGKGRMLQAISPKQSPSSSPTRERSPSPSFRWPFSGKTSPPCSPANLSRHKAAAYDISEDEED
Sequence of Serine/threonine-protein kinase 38-like (Q9Y2H1 whole entry): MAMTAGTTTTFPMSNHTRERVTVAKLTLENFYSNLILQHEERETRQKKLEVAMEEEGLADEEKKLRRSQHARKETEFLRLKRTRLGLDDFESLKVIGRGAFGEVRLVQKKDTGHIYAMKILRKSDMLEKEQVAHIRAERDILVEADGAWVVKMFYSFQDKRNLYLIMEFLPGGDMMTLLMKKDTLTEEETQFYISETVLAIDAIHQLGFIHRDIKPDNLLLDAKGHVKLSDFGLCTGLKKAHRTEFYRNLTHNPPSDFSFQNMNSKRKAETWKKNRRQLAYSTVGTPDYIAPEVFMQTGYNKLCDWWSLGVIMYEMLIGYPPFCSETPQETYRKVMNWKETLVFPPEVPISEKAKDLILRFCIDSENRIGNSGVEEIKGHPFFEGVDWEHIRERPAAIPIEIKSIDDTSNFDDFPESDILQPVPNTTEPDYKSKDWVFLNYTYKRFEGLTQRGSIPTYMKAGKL

CO[C@H]1C[C@@H]2CC[C@@H](C)[C@@](O)(O2)C(=O)C(=O)N2CCCC[C@H]2C(=O)O[C@H]([C@H](C)C[C@@H]2CC[C@@H](OC(=O)C(C)(CO)CO)[C@H](OC)C2)CC(=O)[C@H](C)/C=C(\C)[C@@H](O)[C@@H](OC)C(=O)[C@H](C)C[C@H](C)/C=C/C=C/C=C/1C [TEMSIROLIMUS]
inactive: [1] > 30 µM | UMP-CMP kinase > 30 µM | [2] > 30 µM | Misshapen-like kinase 1 > 30 µM | [3] > 30 µM | [4] > 30 µM | [5] > 30 µM | [6] > 30 µM
